Source: patent US9695155B2, “Herbicidal substituted pyrimidinyloxy benzene compounds” (E. I. DU PONT DE NEMOURS AND COMPANY, priority 2013, dated 2017)

Assays:
sandbur = experiment: Test E postemergence; format: in vivo, Cenchrus echinatus
Text: Seeds of plant species selected from corn (Zea mays), soybean (Glycine max), velvetleaf (Abutilon theophrasti), lambsquarters (Chenopodium album), wild poinsettia (Euphorbia heterophylla), palmer pigweed (Amaranthus palmeri), waterhemp (common waterhemp, Amaranthus rudis), surinam grass (Brachiaria decumbens), large (Lg) crabgrass (Digitaria sanguinalis), Brazilian crabgrass (Digitaria horizontalis), fall panicum (Panicum dichotomiflorum), giant foxtail (Setaria faberii), green foxtail (Setaria viridis), goosegrass (Eleusine indica), johnsongrass (Sorghum halepense), ragweed (common ragweed, Ambrosia elatior), barnyardgrass (Echinochloa crus-galli), sandbur (southern sandbur, Cenchrus echinatus), arrowleaf sida (Sida rhombifolia), Italian ryegrass (Lolium multiflorum), dayflower (Virginia (VA) dayflower, Commelina virginica), field bindweed (Convolvulus arvensis), morningglory (Ipomoea coccinea), nightshade (eastern black nightshade, Solanum ptycanthum), kochia (Kochia scoparia), yellow nutsedge (Cyperus esculentus), cocklebur (common cocklebur, Xanthium strumarium), smartweed (ladysthumb smartweed, and hairy beggarticks (Bidens pilosa), were planted into a silt loam soil and treated preemergence with test chemicals formulated in a non-phytotoxic solvent mixture which included a surfactant.
At the same time, plants from these crop and weed species and also horseweed (Canada horseweed, Conyza canadensis), waterhemp_RES1, (ALS & Triazine resistant common waterhemp, Amaranthus rudis), and waterhemp_RES2, (ALS & HPPD resistant common waterhemp, Amaranthus rudis) were planted in pots containing Redi-Earth® planting medium (Scotts Company, 14111 Scottslawn Road, Marysville, Ohio 43041) comprising spaghnum peat moss, vermiculite, wetting agent and starter nutrients were treated with postemergence applications of test chemicals formulated in the same manner. Plants ranged in height from 2 to 18 cm for postemergence treatments (1- to 4-leaf stage). Treated plants and controls were maintained in a greenhouse for 14 to 21 days, after which time all species were compared to controls and visually evaluated. Plant response ratings, summarized in Table E, are based on a scale of 0 to 100 where 0 is no effect and 100 is complete control. A dash (-) response means no test result.

oilseed rape = experiment: Test D preemergence; format: in vivo, Brassica napus
How it was run: (§1)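 After treatment, visual injury versus untreated plants, 0–100 scale, assessed at 7 to 21 days. Applications were made preemergence to silt loam-sown seed and postemergence to seedlings 2–18 cm high in potting medium.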

chamomile = experiment: Test D preemergence; format: in vivo, Matricaria inodora
How it was run: as §1

speedwell = experiment: Test D preemergence; format: in vivo, Veronica persica
How it was run: as §1

wild buckwheat = experiment: Test D preemergence; format: in vivo, Polygonum convolvulus
How it was run: as §1

wild mustard [1] = experiment: Test D preemergence; format: in vivo, Sinapis arvensis
How it was run: as §1

wild oat = experiment: Test D preemergence; format: in vivo, Avena fatua
How it was run: as §1

wild radish [2] = experiment: Test D preemergence; format: in vivo, Raphanus raphanistrum
How it was run: as §1

windgrass = experiment: Test D preemergence; format: in vivo, Apera spica-venti
How it was run: as §1

field violet = experiment: Test D postemergence; format: in vivo, Viola arvensis
How it was run: as §1

green foxtail = experiment: Test D postemergence; format: in vivo, Setaria viridis
How it was run: as §1

deadnettle = experiment: Test D postemergence; format: in vivo, Lamium amplexicaule
How it was run: as §1

wild mustard [3] = experiment: Test D postemergence; format: in vivo, Sinapis arvensis
How it was run: as §1

wild radish [4] = experiment: Test D postemergence; format: in vivo, Raphanus raphanistrum
How it was run: as §1

[5] = Postemergence, 31 g ai/ha, scale 0 to 100
[6] = Postemergence, 62 g ai/ha, scale 0 to 100
[7] = Postemergence, 125 g ai/ha, scale 0 to 100
[8] = postemergence, 16 g ai/ha, scale 0 to 100, 0 no effect, 100 complete control
[9] = 31 g ai/ha, scale 0 (no effect) to 100 (complete control)
[10] = 62 g ai/ha, scale 0 to 100 (0 no effect, 100 complete control)
[11] = 125 g ai/ha, scale 0 to 100 (0 no effect, 100 complete control)
[12] = 250 g ai/ha, scale 0 to 100 (0 no effect, 100 complete control)

In the case of Fc1cnc(Oc2ccccc2-n2cc(Br)cn2)nc1 [Compound 10, 2-[2-(4-bromo-1H-pyrazol-1-yl)phenoxy]-5-fluoropyrimidine], the pest or weed control at 31 g/ha (sandbur; Cenchrus echinatus, post-emergence, Postemergence, 31 g ai/ha, scale 0 to 100, read-out: Plant response rating, Sandbur) is reported as 0%, the pest or weed control at 62 g/ha (sandbur; Cenchrus echinatus, post-emergence, Postemergence, 62 g ai/ha, scale 0 to 100, read-out: Plant response rating, Sandbur) is reported as 0% and the pest or weed control at 125 g/ha (sandbur; Cenchrus echinatus, post-emergence, Postemergence, 125 g ai/ha, scale 0 to 100, read-out: Plant response rating, Sandbur) is reported as 0%. It also gave a pest or weed control at 250 g/ha (sandbur; Cenchrus echinatus, post-emergence, Postemergence, 250 g ai/ha, scale 0 to 100, read-out: Plant response rating, Sandbur) of 0% and a pest or weed control at 16 g/ha (sandbur; Cenchrus echinatus, post-emergence, postemergence, 16 g ai/ha, scale 0 to 100, 0 no effect, 100 complete control, read-out: Plant response rating, Sandbur) of 0%.
With FC(F)(F)c1cnn(-c2ccccc2Oc2ncc(Cl)cn2)c1 [Compound 16] the “Plant response rating, Sandbur” value (sandbur; [5]) was 0, the “Plant response rating, Sandbur” value (sandbur; [6]) was 0 and the “Plant response rating, Sandbur” value (sandbur; [7]) was 0. For the same compound, the “Plant response rating, Sandbur” value (sandbur; Postemergence, 250 g ai/ha, scale 0 to 100) was 0 and the “Plant response rating, Sandbur” value (sandbur; [8]) was 0.
In the case of Clc1cnc(Oc2cccc(Br)c2-n2cc(Br)cn2)nc1 [Compound 65], the “Plant response rating, Sandbur” value (sandbur; [5]) is reported as 0, the “Plant response rating, Sandbur” value (sandbur; [6]) is reported as 0 and the “Plant response rating, Sandbur” value (sandbur; [7]) is reported as 0. For the same compound, the “Plant response rating, Sandbur” value (sandbur; postemergence, 8 g ai/ha, scale 0 to 100, 0 no effect, 100 complete control) was 0 and the “Plant response rating, Sandbur” value (sandbur; [8]) was 0.
For N#Cc1cccc(Oc2ncc(Cl)cn2)c1-n1cc(-n2ccc(C(F)(F)F)n2)cn1 [Compound 284], the “Plant response rating, Oilseed Rape” value (oilseed rape; [9]) was 0, the “Plant response rating, Oilseed Rape” value (oilseed rape; 62 g ai/ha, scale 0-100) was 0 and the “Plant response rating, Oilseed Rape” value (oilseed rape; 125 g ai/ha, scale 0-100) was 10. The “Plant response rating, Oilseed Rape” value (oilseed rape; 250 g ai/ha, scale 0-100) was 10, the “Plant response rating, Chamomile” value (chamomile; [9]) was 100 and the “Plant response rating, Chamomile” value (chamomile; 62 g ai/ha, scale 0-100) was 100. The “Plant response rating, Chamomile” value (chamomile; 125 g ai/ha, scale 0-100) was 100, the “Plant response rating, Chamomile” value (chamomile; 250 g ai/ha, scale 0-100) was 100 and the “Plant response rating, Speedwell” value (speedwell; [9]) was 0. The “Plant response rating, Speedwell” value (speedwell; 125 g ai/ha, scale 0-100) was 100, the “Plant response rating, Speedwell” value (speedwell; 250 g ai/ha, scale 0-100) was 100 and the “Plant response rating, Buckwheat, Wild” value (wild buckwheat; [9]) was 10. The “Plant response rating, Buckwheat, Wild” value (wild buckwheat; 62 g ai/ha, scale 0-100) was 20, the “Plant response rating, Buckwheat, Wild” value (wild buckwheat; 125 g ai/ha, scale 0-100) was 70 and the “Plant response rating, Buckwheat, Wild” value (wild buckwheat; 250 g ai/ha, scale 0-100) was 100. For the same compound, the “Plant response rating, Mustard, Wild” value (wild mustard [1]; [9]) was 15, the “Plant response rating, Mustard, Wild” value (wild mustard [1]; 62 g ai/ha, scale 0-100) was 15 and the “Plant response rating, Mustard, Wild” value (wild mustard [1]; 125 g ai/ha, scale 0-100) was 90. The “Plant response rating, Mustard, Wild” value (wild mustard [1]; 250 g ai/ha, scale 0-100) was 100, the “Plant response rating, Oat, Wild” value (wild oat; [9]) was 0 and the “Plant response rating, Oat, Wild” value (wild oat; 62 g ai/ha, scale 0-100) was 0. The “Plant response rating, Oat, Wild” value (wild oat; 125 g ai/ha, scale 0-100) was 20, the “Plant response rating, Oat, Wild” value (wild oat; 250 g ai/ha, scale 0-100) was 50 and the “Plant response rating, Radish, Wild” value (wild radish [2]; [9]) was 0. For the same compound, the “Plant response rating, Radish, Wild” value (wild radish [2]; 125 g ai/ha, scale 0-100) was 0, the “Plant response rating, Radish, Wild” value (wild radish [2]; 250 g ai/ha, scale 0-100) was 35 and the “Plant response rating, Windgrass” value (windgrass; [9]) was 20. For the same compound, the “Plant response rating, Windgrass” value (windgrass; 125 g ai/ha, scale 0-100) was 45, the “Plant response rating, Windgrass” value (windgrass; 250 g ai/ha, scale 0-100) was 55 and the “Plant response rating, Field Violet” value (field violet; 31 g ai/ha, scale 0-100) was 100. The “Plant response rating, Field Violet” value (field violet; [10]) was 85, the “Plant response rating, Field Violet” value (field violet; [11]) was 100 and the “Plant response rating, Field Violet” value (field violet; [12]) was 100. For the same compound, the “Plant response rating, Foxtail, Green” value (green foxtail; 31 g ai/ha, scale 0-100) was 10, the “Plant response rating, Foxtail, Green” value (green foxtail; [10]) was 10 and the “Plant response rating, Foxtail, Green” value (green foxtail; [11]) was 50. For the same compound, the “Plant response rating, Foxtail, Green” value (green foxtail; [12]) was 85, the “Plant response rating, Deadnettle” value (deadnettle; 31 g ai/ha, scale 0-100) was 70 and the “Plant response rating, Deadnettle” value (deadnettle; [10]) was 100. The “Plant response rating, Deadnettle” value (deadnettle; [11]) was 100, the “Plant response rating, Deadnettle” value (deadnettle; [12]) was 100 and the “Plant response rating, Mustard, Wild” value (wild mustard [3]; 31 g ai/ha, scale 0-100) was 100. The “Plant response rating, Mustard, Wild” value (wild mustard [3]; [10]) was 100, the “Plant response rating, Mustard, Wild” value (wild mustard [3]; [11]) was 100 and the “Plant response rating, Mustard, Wild” value (wild mustard [3]; [12]) was 100. The “Plant response rating, Radish, Wild” value (wild radish [4]; 31 g ai/ha, scale 0-100) was 75, the “Plant response rating, Radish, Wild” value (wild radish [4]; [10]) was 100 and the “Plant response rating, Radish, Wild” value (wild radish [4]; [11]) was 100. For the same compound, the “Plant response rating, Radish, Wild” value (wild radish [4]; [12]) was 100.
